Results from article PMC8351955, “Targeting Mycobacterium tuberculosis response to environmental cues for the development of effective antitubercular drugs” (PLoS Biology, 2021).
Several values for one entry are separate records, joined by “and”; a condition that tells them apart may be missing. Equal entries are not always repeated.

Experiments:
Mtb = test: Mouse Mtb infection, C3HeB/FeJ model, oral C6; format: in vivo, C3HeB/FeJ mice; conditions: for CFU/ml: individual values
Procedure: C3HeB/FeJ wild-type mice (The Jackson Laboratory) were infected intranasally with 10^3 CFUs of Mtb (35 μl), under light anesthesia with 2% isoflurane. […] The next day, the suspension was homogenized by bead beating with 5 mm steel beads in a TOMY microtube mixer (2 × 20 seconds) and stored at 4°C until use. […] Administration began at 2 or 6 weeks post-infection as indicated. At time of sacrifice, the left lobe and accessory right lobe of the lung were homogenized in PBS + 0.05% Tween 80 and serial dilutions plated on 7H10 agar plates with 100 μg/ml cycloheximide for bacterial load determination. The remaining 3 right lobes were fixed in 4% PFA in PBS. One lobe was used for histological analysis by standard hematoxylin and eosin (H&E) staining (Tufts Comparative Pathology Services). A Nikon Eclipse E400 with a SPOT insight color digital camera was used to image the histology samples.

[1] = test system: macrophage phagosomal proteolytic activity in BMDMs; test: Phagosomal maturation assay, DQ-BSA/AF594 beads (proteolysis readout); format: cell-based, mouse; conditions: for DQ-BSA/AF594, Average: average of 4 replicates
Procedure: Carboxyfluorescein (pH readout), DQ-BSA/Alexa Fluor 594 (AF594) (proteolysis readout), and BAC/AF594 (Cl^− readout) beads were generated essentially as previously described, except that 10,10′-Bis[3-carboxylpropyl]-9,9′-biacridinium dinitrate di-NHS ester (BAC-SE) was purchased from emp Biotech LLC. BMDMs were isolated from C57BL/6J mice (The Jackson Laboratory) and maintained as described above. A quantity of 2 × 10^5 macrophages/well were seeded into 96-well clear bottom black plates and utilized in assays 1 to 2 days post-seeding. […] Assay buffer consisted of PBS (pH 7.2), supplemented with 5% FBS, 5 mM dextrose, 1 mM CaCl2, 2.7 mM KCl, and 0.5 mM MgCl2 in the case of assays with the carboxyfluorescein or DQ-BSA/AF594 beads. For assays with the BAC/AF594 beads, assay buffer consisted of PBS (pH 7.2), supplemented with 5% FBS, 5 mM dextrose, 1 mM calcium acetate, 1.35 mM K2SO4, and 0.5 mM MgSO4 [9]. Sensor beads at approximately 2 to 5 beads/macrophage in appropriate assay buffer were finally added, with data acquisition on a Biotek Synergy H1 microplate reader with bottom read signal detection started within 2 to 3 minutes of bead addition. Excitation/emission wavelengths were 450 nm/520 nm and 490 nm/520 nm for carboxyfluorescein, 490 nm/520 nm for DQ-BSA, 365 nm/505 nm for BAC, and 590 nm/617 nm for AF594. Each experiment was run with a total of 3 to 5 replicate wells/condition, with temperature maintained at 37°C throughout the assay. Wells were read every 2 minutes for 2 hours for the carboxyfluorescein bead assays, every 2 minoutes for 4 hours for the DQ-BSA/AF594 bead assays, and every 1 minute for 2 hours for the BAC/AF594 bead assays. Analyses of the results were performed as previously described.

CYP3A4/5 = test: Human cytochrome P450 inhibition, 3A4/5; format: in vitro ADME; conditions: read-out: % inhibition of CYP 3A4/5
CYP2D6 = CYP2D6 (Homo sapiens, UniProt P10635); test: Human cytochrome P450 inhibition, 2D6; format: in vitro ADME; conditions: read-out: % inhibition of CYP 2D6
Procedure: Assays examining mouse and human liver microsomal stability, kinetic aqueous solubility, mouse and human plasma protein binding and stability, and human cytochrome P450 inhibition characteristics of the compounds were run by BioDuro (San Diego, CA), using standard protocols as previously described [37]. hERG inhibition assays were also performed by BioDuro.

[2] = Human liver microsomal stability; format: in vitro ADME; conditions: human liver microsomes; read-out: half-life (t1/2) in human liver microsomes
[3] = test system: Mtb growth in J774 macrophage-like cells; test: J774 infection in 96-well plates, mKO fluorescence 6 days post-infection; format: cell-based, Mycobacterium tuberculosis; conditions: for % Growth: Fig. 2D, DMSO = 100
Outline: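 J774 cells infected with mKO-expressing log-phase Mtb (40 μl at OD600 = 0.2 per well) and treated with compound at 10 μM final (0.1% DMSO). mKO fluorescence (ex 543/em 565 nm) read at infection and 6 days later at 37 °C, 5% CO2; growth expressed relative to DMSO controls as 100%.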

Mouse plasma stability = format: in vitro ADME; conditions: 5-h incubation

Chain of CYP2D6 (P10635 whole entry): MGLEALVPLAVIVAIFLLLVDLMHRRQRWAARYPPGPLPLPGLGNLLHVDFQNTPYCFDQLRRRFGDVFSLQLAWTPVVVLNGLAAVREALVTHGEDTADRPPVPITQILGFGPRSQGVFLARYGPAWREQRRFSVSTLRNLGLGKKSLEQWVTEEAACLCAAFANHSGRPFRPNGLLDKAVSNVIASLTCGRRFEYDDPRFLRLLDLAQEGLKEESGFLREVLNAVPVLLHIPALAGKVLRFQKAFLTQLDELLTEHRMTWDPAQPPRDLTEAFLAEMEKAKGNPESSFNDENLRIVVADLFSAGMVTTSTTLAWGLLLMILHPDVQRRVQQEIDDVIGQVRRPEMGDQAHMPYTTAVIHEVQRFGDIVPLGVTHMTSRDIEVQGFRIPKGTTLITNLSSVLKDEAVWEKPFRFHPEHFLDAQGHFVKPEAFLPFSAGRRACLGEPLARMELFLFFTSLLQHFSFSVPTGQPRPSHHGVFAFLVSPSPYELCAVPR

SMILES: CCSc1ncc(CN2CCN(c3nc4ccccc4o3)CC2)cn1 [C6, 2-(4-((2-(ethylthio)pyrimidin-5-yl)methyl)piperazin-1-yl)benzo[d]oxazole]
- Lung bacterial load, short-term infection model (Mtb; 250 mg/kg oral gavage 5 times a week for 2 weeks, started 2 weeks post-infection): significantly inhibited Mtb growth
- Lung bacterial load, longer-term infection model (Mtb; 250 mg/kg oral gavage for 2 or 4 weeks, started 6 weeks post-infection): significant decrease in bacterial load
- Lung histology, short-term infection model (Mtb; 250 mg/kg, 2-week treatment from 2 weeks post-infection): less cellular infiltration
- Lung histopathology, longer-term infection model (Mtb; 250 mg/kg, 2 or 4 weeks treatment from 6 weeks post-infection): improved histopathology
- CFU/ml (Mtb; Fig. 4A, 4 weeks (pre-treatment 2 weeks)): 5260000 CFU/ml and 1940000 CFU/ml and 7340000 CFU/ml and 338000 CFU/ml and 3180000 CFU/ml and 1920000 CFU/ml and 1820000 CFU/ml and 13560000 CFU/ml
- CFU/ml (Mtb; Fig. 4C, 8 weeks (pre-treatment 6 weeks)): 38000 CFU/ml and 860000 CFU/ml and 9200000 CFU/ml and 3340000 CFU/ml and 4100000 CFU/ml and 2340000 CFU/ml and 68000 CFU/ml and 304000 CFU/ml and 270000000 CFU/ml and 3980000 CFU/ml and 234000 CFU/ml and 64000 CFU/ml and 21800 CFU/ml and 62000 CFU/ml
- CFU/ml (Mtb; Fig. 4C, 10 weeks (pre-treatment 6 weeks)): 338000 CFU/ml and 29000 CFU/ml and 2660 CFU/ml and 228000 CFU/ml and 188000 CFU/ml and 43000000 CFU/ml and 112000 CFU/ml and 17800000 CFU/ml and 926000 CFU/ml and 42800000 CFU/ml and 132000 CFU/ml and 118000 CFU/ml and 720000 CFU/ml
- Effect on macrophage phagosomal proteolytic activity ([1]; 10 μM, uninfected BMDMs): did not affect
- DQ-BSA/AF594, single replicates (Rep 1-4) ([1]; Time 0 minutes): 0.14 and 0.1347 and 0.1424 and 0.1346
- DQ-BSA/AF594, single replicates (Rep 1-4) ([1]; Time 2 minutes): 0.135 and 0.1275 and 0.1349 and 0.128
- DQ-BSA/AF594, single replicates (Rep 1-4) ([1]; Time 4 minutes): 0.1412 and 0.1359 and 0.1424 and 0.1318
- DQ-BSA/AF594, Average ([1]; time 0 minutes): 0.1379
- DQ-BSA/AF594, Average ([1]; time 2 minutes): 0.1314
- DQ-BSA/AF594, Average ([1]; time 4 minutes): 0.1378
- DQ-BSA/AF594, single replicates (Rep 1-4) ([1]; time 6 minutes): 0.1434 and 0.1398 and 0.1395 and 0.1344
- DQ-BSA/AF594, Average ([1]; time 6 minutes): 0.1393
- DQ-BSA/AF594, single replicates (Rep 1-4) ([1]; time 8 minutes): 0.1391 and 0.1428 and 0.1447 and 0.1317
- DQ-BSA/AF594, Average ([1]; time 8 minutes): 0.1396
- DQ-BSA/AF594, single replicates (Rep 1-4) ([1]; time 10 minutes): 0.146 and 0.145 and 0.1422 and 0.1332
- DQ-BSA/AF594, Average ([1]; time 10 minutes): 0.1416
- DQ-BSA/AF594, single replicates (Rep 1-4) ([1]; time 12 minutes): 0.1443 and 0.1415 and 0.1428 and 0.1313
- DQ-BSA/AF594, Average ([1]; time 12 minutes): 0.14
- DQ-BSA/AF594, single replicates (Rep 1-4) ([1]; time 14 minutes): 0.1461 and 0.1457 and 0.1422 and 0.1412
- DQ-BSA/AF594, Average ([1]; time 14 minutes): 0.1438
- DQ-BSA/AF594, single replicates (Rep 1-4) ([1]; time 16 minutes): 0.1457 and 0.1504 and 0.1476 and 0.1404
- DQ-BSA/AF594, Average ([1]; time 16 minutes): 0.146
- DQ-BSA/AF594, single replicates (Rep 1-4) ([1]; time 18 minutes): 0.152 and 0.1539 and 0.1536 and 0.1434
- DQ-BSA/AF594, Average ([1]; time 18 minutes): 0.1507
- DQ-BSA/AF594, single replicates (Rep 1-4) ([1]; time 20 minutes): 0.1544 and 0.1557 and 0.1584 and 0.1468
- DQ-BSA/AF594, Average ([1]; time 20 minutes): 0.1538
- DQ-BSA/AF594, single replicates (Rep 1-4) ([1]; time 22 minutes): 0.1647 and 0.1693 and 0.1637 and 0.1551
- DQ-BSA/AF594, Average ([1]; time 22 minutes): 0.1632
- DQ-BSA/AF594, single replicates (Rep 1-4) ([1]; time 24 minutes): 0.178 and 0.18 and 0.1857 and 0.1719
- DQ-BSA/AF594, Average ([1]; time 24 minutes): 0.1789
- DQ-BSA/AF594, single replicates (Rep 1-4) ([1]; time 26 minutes): 0.2064 and 0.2113 and 0.205 and 0.1944
- DQ-BSA/AF594, Average ([1]; time 26 minutes): 0.2043
- DQ-BSA/AF594, single replicates (Rep 1-4) ([1]; time 28 minutes): 0.2506 and 0.2446 and 0.2477 and 0.2339
- DQ-BSA/AF594, Average ([1]; time 28 minutes): 0.2442
- DQ-BSA/AF594, single replicates (Rep 1-4) ([1]; time 30 minutes): 0.3139 and 0.29 and 0.311 and 0.2857
- DQ-BSA/AF594, Average ([1]; time 30 minutes): 0.3002
- inhibition at 10 µM (CYP3A4/5): < 1%
- inhibition at 10 µM (CYP2D6): 10.5%
- half-life [2]: 37.6 min
- % growth of Mtb in J774 cells, average ([3]; 10 μM compound, 6 days post-infection, DMSO = 100%, Fig 1H): 40.8112%
- Inhibition of Mtb growth in J774 cells ([3]; 10 μM, 6 days post-infection): Mtb growth inhibition
- % Growth ([3]; average of 4 replicates): 56.2334%
- % Growth ([3]; individual replicates): 53.4835% and 56.5013% and 56.5506% and 58.3983%
- remaining at 5 h (Mouse plasma stability): > 99.9%
